The values that follow come from patent publication US11180504B2 (ORCHID PHARMA LTD., priority 2016, dated 2021).

In experiment [1] the test system is methicillin-sensitive Staphylococcus aureus. In words: MIC by broth micro-dilution (CLSI), methicillin-sensitive S. aureus. It counts as cell-based. Conditions: Staphylococcus aureus, ATCC 29213 / MSSA, MSSA S. aureus ATCC29213; read-out: MIC.
For experiment [2], the system named is carbapenem sensitive Escherichia coli. In words: MIC by broth micro-dilution (CLSI), carbapenem sensitive E. coli. It counts as cell-based. Particulars: Escherichia coli, ATCC25922, ESBL −ve E. coli ATCC25922; read-out: MIC. (In general: In broth dilution the organism is exposed to a series of concentrations in liquid medium.)
Experiment [3] concerns carbapenemase producing K. pneumoniae. In words: MIC by broth micro-dilution (CLSI), carbapenemase producing K. pneumoniae. The format is cell-based, Klebsiella pneumoniae. Particulars: Klebsiella pneumoniae, ATCCBAA1705, KPC-2 K. pneumoniae ATCC BAA-1705; read-out: MIC.
The subject of experiment [4] is carbapenem sensitive Pseudomonas aeruginosa. The experiment is described as follows: MIC by broth micro-dilution (CLSI), carbapenem sensitive P. aeruginosa. It counts as cell-based. Particulars: Pseudomonas aeruginosa, ATCC27853, Meropenem susceptible P. aeruginosa ATCC27853; read-out: MIC.

In brackets after ≈: the same amount, converted by molar mass.

By MIC is commonly meant the smallest concentration in the dilution series that meets the test's criterion for growth inhibition. For `C[C@@H](NC(=O)Cn1cnnn1)[C@H]1C(=O)N2C(C(=O)O)=C(S[C@@H]3CN[C@H](C(=O)N4CCC[C@H](N)C4)C3)[C@H](C)[C@H]12` [Example 341, (4R,5S,6R)-6-((R) - 1-(2-(1H-tetrazol-1-yl)acetamido)ethyl)-3-((3S,5S)-5-((S)-3-aminopiperidin-1-carbonyl)pyrrolidin-3-ylthio)-4-methyl-7-oxo-1-azabicycio[3.2.0]hept-2-ene-2-carboxylic acid], the MIC in experiment [1] came to 4 µg/mL (≈ 7.3 µM); in experiment [2], 1 µg/mL (≈ 1.83 µM); in experiment [3] it was 4 µg/mL (≈ 7.3 µM); in experiment [4] it was 8 µg/mL (≈ 14.6 µM).
`C[C@@H](NC(=O)Cn1cnnn1)[C@H]1C(=O)N2C(C(=O)O)=C(S[C@@H]3CN[C@H](C(=O)N4CCC(N5CC(N)C5)CC4)C3)[C@H](C)[C@H]12` [Example 342, (4R,5S,6R)-6-((R) - 1-(2-(1H-tetrazol-1-yl)acetamido)ethyl)-3-((3S,5S)-5-(4-(3-aminoazetidin-1-yl)piperidine-1-carbonyl)pyrrolidin-3-ylthino)-4-methyl-7-oxo-1-azabicyclo[3.2.0]hept-2-ene-2-carboxylic acid]: the MIC in experiment [1] turned out to be 16 µg/mL (≈ 26.5 µM); in experiment [2], 2 µg/mL (≈ 3.32 µM); in experiment [3], 8 µg/mL (≈ 13.3 µM); in experiment [4], 8 µg/mL (≈ 13.3 µM).
For `C[C@@H](NC(=O)Cn1cnnn1)[C@H]1C(=O)N2C(C(=O)O)=C(S[C@@H]3CN[C@H](C(=O)N4CCC(N5CC(CN)C5)CC4)C3)[C@H](C)[C@H]12` [Example 343, (4R,5S,6R)-6-((R) - 1-(2-(1H-tetrazol-1-yl)acetamido)ethyl)-3-((3S,5S)-5-(4-(3-(aminomethyl)azetidin-1-yl)piperidine-1-carbonyl)pyrrolidin-3-ylthio)-4-methyl-7-oxo-1-azabicycio[3.2.0]hept-2-ene-2-carboxylic acid], the MIC in experiment [1] stood at 16 µg/mL (≈ 25.9 µM); in experiment [2], 2 µg/mL (≈ 3.24 µM); in experiment [3], 8 µg/mL (≈ 13 µM); in experiment [4], 8 µg/mL (≈ 13 µM).
Turning to `C[C@@H](NC(=O)Cn1cnnn1)[C@H]1C(=O)N2C(C(=O)O)=C(S[C@@H]3CN[C@H](C(=O)N4CC(F)(CN)C4)C3)[C@H](C)[C@H]12` [Example 344, (4R,5S,6R)-6-((R) - 1-(2-(1H-tetrazol-1-yl)acetamido)ethyl)-3-((3S,5S)-5-(3-(aminomethyl)-3-fluoroazetidine-1-carbonyl)pyrrolidin-3-ylthio)-4-methyl-7-oxo-1-azabicyclo[3.2.0]hept-2-ene-2-carboxylic acid], the MIC in experiment [1] was 16 µg/mL (≈ 29 µM); in experiment [2], 1 µg/mL (≈ 1.81 µM); in experiment [3] it was 16 µg/mL (≈ 29 µM); in experiment [4], 16 µg/mL (≈ 29 µM).
As to `C[C@@H](NC(=O)Cn1cnnn1)[C@H]1C(=O)N2C(C(=O)O)=C(S[C@@H]3CN[C@H](C(=O)N4C[C@H]5CC[C@@H](C4)[C@H]5N)C3)[C@H](C)[C@H]12` [Example 345, (4R,5S,6R)-6-((R) - 1-(2-(1H-tetrazol-1-yl)acetamido)ethyl)-3-((3S,5S)-5-((1R,5S,8S)-8-amino-3-azabicyclo[3.2.0]octane-3-carbonyl)pyrrolidin-3-ylthio)-4-methyl-7-oxo-1-azabicyclo[3.2.0]hept-2-ene-2-carboxylic acid], the MIC in experiment [1] came out at 64 µg/mL (≈ 112 µM); in experiment [2], 8 µg/mL (≈ 13.9 µM); in experiment [3], 32 µg/mL (≈ 55.8 µM); in experiment [4], 128 µg/mL (≈ 223 µM).
The corresponding values for `C[C@@H](NC(=O)Cn1cnnn1)[C@H]1C(=O)N2C(C(=O)O)=C(S[C@@H]3CN[C@H](C(=O)N4CCC(F)(CN)CC4)C3)[C@H](C)[C@H]12` [Example 346, (4R,5S,6R)-6-((R) - 1-(2-(1H-tetrazol-1-yl)acetamido)ethyl)-3-((3S,5S)-5-(4-(aminomethyl)-4-fluoropiperidine-1-carbonyl)pyrrolidin-3-ylthio)-4-methyl-7-oxo-1-azabicyclo[3.2.0]hept-2-ene-2-carboxylic acid] are 16 µg/mL (≈ 27.6 µM), 1 µg/mL (≈ 1.73 µM), 8 µg/mL (≈ 13.8 µM) and 16 µg/mL (≈ 27.6 µM).
The corresponding values for `C[C@@H](NC(=O)Cn1nnnc1C(F)(F)F)[C@H]1C(=O)N2C(C(=O)O)=C(S[C@@H]3CN[C@H](C(=O)N4CC[C@@H](N)C4)C3)[C@H](C)[C@H]12` [Example 347, (4R,5S,6R)-3-((3S,5S)-5-((R)-3-aminopyrrolidine-1-carbonyl)pyrrolidin-3-ylthio)-4-methyl-7-oxo-6-((R)-1-(2-(5-(trifluoromethyl)-1H-tetrazol-1-yl)acetamido)ethyl)-1-azabicyclo[3.2.0]hept-2-ene-2-carboxylic acid] are 4 µg/mL (≈ 6.65 µM), 0.5 µg/mL (≈ 0.831 µM), 16 µg/mL (≈ 26.6 µM) and greater than 128 µg/mL.
The corresponding values for `C[C@@H](NC(=O)Cn1nnnc1C(F)(F)F)[C@H]1C(=O)N2C(C(=O)O)=C(S[C@@H]3CN[C@H](C(=O)N(C)C)C3)[C@H](C)[C@H]12` [Example 348, (4R,5S,6R)-3-((3S,5S)-5-(dimethylcarbamoyl)pyrrolidin-3-ylthio)-4-methyl-7-oxo-6-((R)-1-(2-(5-(trifluoromethyl)-1H-tetrazol-1-yl)acetamido)ethyl)-1-azabicyclo[3.2.0]hept-2-ene-2-carboxylic acid] are 8 µg/mL (≈ 14.3 µM), 1 µg/mL (≈ 1.78 µM), 16 µg/mL (≈ 28.5 µM) and greater than 128 µg/mL.
In the case of `C[C@@H](NC(=O)Cn1nnnc1C(F)F)[C@H]1C(=O)N2C(C(=O)O)=C(S[C@@H]3CN[C@H](C(=O)N4CC[C@@H](N)C4)C3)[C@H](C)[C@H]12` [Example 349, (4R,5S,6R)-3-((3S,5S)-5-((R)-3-aminopyrrolidine-1-carbonyl)pyrrolidin-3-ylthio)-6-((R)-1-(2-(5-(difluoromethyl)-1H-tetrazol-1-yl)acetamido)ethyl)-4-methyl-7-oxo-1-azabicyclo[3.2.0]hept-2-ene-2-carboxylic acid], the MIC in experiment [1] stood at 4 µg/mL (≈ 6.85 µM); in experiment [2] it was 0.25 µg/mL (≈ 0.428 µM); in experiment [3], 4 µg/mL (≈ 6.85 µM); in experiment [4], 32 µg/mL (≈ 54.8 µM).
With `C[C@@H](NC(=O)Cn1nnnc1C(F)F)[C@H]1C(=O)N2C(C(=O)O)=C(S[C@@H]3CN[C@H](C(=O)N(C)C)C3)[C@H](C)[C@H]12` [Example 350, (4R,5S,6R)-6-((R)-1-(2-(5-(difluoromethyl)-1H-tetrazol-1-yl)acetamido)ethyl)-3-((3S,5S)-5-(dimethylcarbamoyl)pyrrolidin-3-ylthio)-4-methyl-7-oxo-1-azabicyclo[3.2.0]hept-2-ene-2-carboxylic acid], the MIC stood at 2 µg/mL (≈ 3.69 µM) in experiment [1], 0.25 µg/mL (≈ 0.461 µM) in experiment [2], 1 µg/mL (≈ 1.84 µM) in experiment [3] and 128 µg/mL (≈ 236 µM) in experiment [4].
The corresponding values for `C[C@@H](NC(=O)Cn1cnnn1)[C@H]1C(=O)N2C(C(=O)O)=C(S[C@@H]3CN[C@H](C(=O)N4CCC5(CC4)CC(F)(F)CN5)C3)[C@H](C)[C@H]12` [Example 351, (4R,5S,6R)-6-((R)-1-(2-(1H-tetrazol-1-yl)acetamido)ethyl)-3-((3S,5S)-5-(3,3-difluoro-1,8-diazaspiro[4.5]decane-8-carbonyl)pyrrolidin-3-ylthio)-4-methyl-7-oxo-1-azabicyclo[3.2.0]hept-2-ene-2-carboxylic acid] are 16 µg/mL (≈ 25.7 µM), 1 µg/mL (≈ 1.6 µM), 4 µg/mL (≈ 6.41 µM) and greater than 128 µg/mL.
The like results for `C[C@@H](NC(=O)Cn1cnnn1)[C@H]1C(=O)N2C(C(=O)O)=C(S[C@@H]3CN[C@H](C(=O)N4CCC5(CCCN5)CC4)C3)[C@H](C)[C@H]12` [Example 352, (4R,5S,6R)-3-((3S,5S)-5-(1,8-diazaspiro[4.5]decane-8-carbonyl)pyrrolidin-3-ylthio)-6-((R)-1-(2-(1H-tetrazol-1-yl)acetamido)ethyl)-4-methyl-7-oxo-1-azabicyclo[3.2.0]hept-2-ene-2-carboxylic acid] were, in that order, 4 µg/mL (≈ 6.81 µM), 0.25 µg/mL (≈ 0.425 µM), 2 µg/mL (≈ 3.4 µM) and 2 µg/mL (≈ 3.4 µM).
The corresponding values for `C[C@@H](NC(=O)Cn1cnnn1)[C@H]1C(=O)N2C(C(=O)O)=C(S[C@@H]3CN[C@H](C(=O)N4C[C@@H]5NCCO[C@@H]5C4)C3)[C@H](C)[C@H]12` [Example 353, (4R,5S,6R)-6-((R)-1-(2-(1H-tetrazol-1-yl)acetamido)ethyl)-4-methyl-3-((3S,5S)-5-((4aS,7aR)-octahydropyrrolo[3,4-b][1,4]oxazine-6-carbonyl)pyrrolidin-3-ylthio)-7-oxo-1-azabicyclo[3.2.0]hept-2-ene-2-carboxylic acid] are 16 µg/mL (≈ 27.8 µM), 0.25 µg/mL (≈ 0.434 µM), 2 µg/mL (≈ 3.47 µM) and 16 µg/mL (≈ 27.8 µM).
Consider `C[C@@H](NC(=O)Cn1cnnn1)[C@H]1C(=O)N2C(C(=O)O)=C(S[C@@H]3CNC(CNC(=O)[C@H]4CSCN4)C3)[C@H](C)[C@H]12` (stereo partly drawn) [Example 354], for which the MIC in experiment [1] was found to be 2 µg/mL (≈ 3.54 µM); in experiment [2], 0.125 µg/mL (≈ 0.221 µM); in experiment [3], 1 µg/mL (≈ 1.77 µM); in experiment [4], 32 µg/mL (≈ 56.6 µM).
The like results for `C[C@@H](NC(=O)Cn1nnnc1C(C)(C)C)[C@H]1C(=O)N2C(C(=O)O)=C(S[C@@H]3CN[C@H](C(=O)N4CC[C@@H](N)C4)C3)[C@H](C)[C@H]12` [Example 355, (4R,5S,6R)-3-((3S,5S)-5-((R)-3-aminopyrrolidine-1-carbonyl)pyrrolidin-3-ylthio)-6-((R)-1-(2-(5-tert-hutyl-1H-tetrazol-1-yl)acetamido)ethyl)-4-methyl-7-oxo-1-azabicyclo[3.2.0]hept-2-ene-2-carboxylic acid] were, in that order, 4 µg/mL (≈ 6.78 µM), 1 µg/mL (≈ 1.7 µM), 16 µg/mL (≈ 27.1 µM) and 128 µg/mL (≈ 217 µM).
